The structures appear in SMILES notation. Bounds are passed on as bounds.

The test system of this assay is HEK293T cells carrying the ATF4 luciferase reporter. The experiment in a line: ATF4-Luc assay, in vitro model of Vanishing Cell White Matter Disease (VWMD). The class given is cell-based. As to conditions: Homo sapiens, HEK-293T, 1 μg/mL tunicamycin, 7 hours, One Glo luminescence. The protocol:
In order to test exemplary compounds of the invention in a cellular context, a stable VWMD cell line was first constructed. The ATF4 reporter was prepared by fusing the human full-length ATF4 5′-UTR (NCBI Accession No. BC022088.2) in front of the firefly luciferase (FLuc) coding sequence lacking the initiator methionine as described in Sidrauski et al (eLife 2013). The construct was used to produce recombinant retroviruses using standard methods and the resulting viral supernatant was used to transduce HEK293T cells, which were then subsequently selected with puromycin to generate a stable cell line.
HEK293T cells carrying the ATF4 luciferase reporter were plated on polylysine coated 384-well plates (Greiner Bio-one) at 30,000 cells per well. Cells were treated the next day with 1 μg/mL tunicamycin and 200 nM of a compound of Formula (I) for 7 hours. Luminescence was measured using One Glo (Promega) as specified by the manufacturer. Cells were maintained in DMEM with L-glutamine supplemented with 10% heat-inactivated FBS (Gibco) and Antibiotic-Antimycotic solution (Gibco).
Table 2 below summarizes the EC50 data obtained using the ATF4-Luc assay for exemplary compounds of the invention.
As to `Cc1cncc(C(=O)NC23CC(NC(=O)COc4ccc(Cl)c(Cl)c4)(C2)C3)n1` [Compound 737, N-{3-[2-(3,4-dichlorophenoxy)acetamido]bicyclo[1.1.1]pentan-1-yl}-6-methylpyrazine-2-carboxamide], the EC50 (commonly the midpoint of the concentration-response curve) is 250 to 1000 nM. The value for `Cc1coc(C(=O)NC23CC(NC(=O)COc4ccc(Cl)c(F)c4)(C2)C3)c1` [Compound 613, N-{3-[2-(4-chloro-3-fluorophenoxy)acetamido]bicyclo[1.1.1]pentan-1-yl}-4-methylfuran-2-carboxamide] was 50 to 250 nM; that for `O=C(COc1ccc(Cl)c(F)c1)NC12CC(NC(=O)c3cnc(C4CCC(F)(F)CC4)o3)(C1)C2` [Compound 126, N-{3-[2-(4-chloro-3-fluorophenoxy)acetamido]bicyclo[1.1.1]pentan-1-yl}-2-(4,4-difluorocyclohexyl)-1,3-oxazole-5-carboxamide] was 50 to 250 nM; that for `O=C(COc1ccc(Cl)c(F)c1)NC12CC(NC(=O)c3ncc(C(F)F)s3)(C1)C2` [Compound 425, N-{3-[2-(4-chloro-3-fluorophenoxy)acetamido]bicyclo[1.1.1]pentan-1-yl}-5-(difluoromethyl)-1,3-thiazole-2-carboxamide] was 250 to 1000 nM. For the compound `Cc1cc(C(=O)NC23CCC(NC(=O)COc4ccc(Cl)c(F)c4)(CC2)C(=O)C3)on1` [Compound 630, N-{4-[2-(4-chloro-3-fluorophenoxy)acetamido]-3-oxobicyclo[2.2.2]octan-1-yl}-3-methyl-1,2-oxazole-5-carboxamide], the EC50 is 250 to 1000 nM. The value for `O=C(COc1ccc(Cl)c(F)c1)NC12CC(NC(=O)c3ccc(F)c(F)c3)(C1)C2` [Compound 514, N-{3-[2-(4-chloro-3-fluorophenoxy)acetamido]bicyclo[1.1.1]pentan-1-yl}-3,4-difluorobenzamide] was 50 to 250 nM. Consider `O=C(COc1ccc(Cl)c(F)c1)NC12CC(NC(=O)c3cccc(C(F)(F)F)n3)(C1)C2` [Compound 781, N-{3-[2-(4-chloro-3-fluorophenoxy)acetamido]bicyclo[1.1.1]pentan-1-yl}-6-(trifluoromethyl)pyridine-2-carboxamide], for which the EC50 was more than 2000 nM. The value for `CC(C)(C)c1nc(C(=O)NC23CCC(NC(=O)COc4ccc(Cl)c(F)c4)(CC2)C(O)C3)co1` (stereo not drawn) [Compound 629, 2-tert-butyl-N-{4-[2-(4-chloro-3-fluorophenoxy)acetamido]-3-hydroxybicyclo[2.2.2]octan-1-yl}-1,3-oxazole-4-carboxamide] was 250 to 1000 nM.

Take `CCc1ccc(C(=O)NC23CC(NC(=O)COc4ccc(Cl)c(F)c4)(C2)C3)cc1` [Compound 761, N-{3-[2-(4-chloro-3-fluorophenoxy)acetamido]bicyclo[1.1.1]pentan-1-yl}-4-ethylbenzamide]: the EC50 was more than 2000 nM. Turning to `O=C(COc1ccc(Cl)c(F)c1)NC12CC(NC(=O)c3cc(C4CC4)no3)(C1)C2` [Compound 244, N-{3-[2-(4-chloro-3-fluorophenoxy)acetamido]bicyclo[1.1.1]pentan-1-yl}-3-cyclopropyl-1,2-oxazole-5-carboxamide], the EC50 was 50 to 250 nM. `O=C(COc1ccc(Cl)cc1)NC12CC(Nc3nnc(-c4ccc(Cl)cc4)s3)(C1)C2` [Compound 271, 2-(4-chlorophenoxy)-N-(3-{[5-(4-chlorophenyl)-1,3,4-thiadiazol-2-yl]amino}bicyclo[1.1.1]pentan-1-yl)acetamide]: the EC50 fell in the range of 250 to 1000 nM. Take `O=C(COc1ccc(Cl)c(F)c1)NC12CC(NC(=O)c3cnc(-c4ccc(Cl)c(F)c4)o3)(C1)C2` [Compound 105, N-{3-[2-(4-chloro-3-fluorophenoxy)acetamido]bicyclo[1.1.1]pentan-1-yl}-2-(4-chloro-3-fluorophenyl)-1,3-oxazole-5-carboxamide]: the EC50 is less than 50 nM. The value for `Cn1nc(C(=O)NC23CC(NC(=O)COc4ccc(Cl)c(F)c4)(C2)C3)cc1-c1ccccc1` [Compound 345, N-{3-[2-(4-chloro-3-fluorophenoxy)acetamido]bicyclo[1.1.1]pentan-1-yl}-1-methyl-5-phenyl-1H-pyrazole-3-carboxamide] was 50 to 250 nM; that for `Cn1c(C(=O)NC23CC(NC(=O)COc4ccc(Cl)c(F)c4)(C2)C3)ccc1S(N)(=O)=O` [Compound 867, N-{3-[2-(4-chloro-3-fluorophenoxy)acetamido]bicyclo[1.1.1]pentan-1-yl}-1-methyl-5-sulfamoyl-1H-pyrrole-2-carboxamide] was more than 2000 nM. As to `Cc1nc(C(F)(F)F)c(C(=O)NC23CCC(NC(=O)COc4ccc(Cl)c(F)c4)(CC2)C(O)C3)s1` (stereo not drawn) [Compound 504, N-{4-[2-(4-chloro-3-fluorophenoxy)acetamido]-3-hydroxybicyclo[2.2.2]octan-1-yl}-2-methyl-4-(trifluoromethyl)-1,3-thiazole-5-carboxamide], the EC50 lay within 50 to 250 nM.

Turning to `O=C(COc1ccc(Cl)c(F)c1)NC12CCC(NC(=O)c3csc(C4CC4)n3)(CC1)C[C@@H]2O` [Compound 751, N-{(3S)-4-[2-(4-chloro-3-fluorophenoxy)acetamido]-3-hydroxybicyclo[2.2.2]octan-1-yl}-2-cyclopropyl-1,3-thiazole-4-carboxamide], the EC50 is less than 50 nM. Then `CC(C)(O)CCc1ccnc(C(=O)NC23CC(NC(=O)COc4ccc(Cl)c(F)c4)(C2)C3)c1` [Compound 432, N-{3-[2-(4-chloro-3-fluorophenoxy)acetamido]bicyclo[1.1.1]pentan-1-yl}-4-(3-hydroxy-3-methylbutyl)pyridine-2-carboxamide], with more than 2000 nM. In the case of `O=C(COc1ccc(Cl)c(F)c1)NC12CC(NC(=O)c3cc4ccccn4c3)(C1)C2` [Compound 689, N-{3-[2-(4-chloro-3-fluorophenoxy)acetamido]bicyclo[1.1.1]pentan-1-yl}indolizine-2-carboxamide], the EC50 fell in the range of 50 to 250 nM. Consider `O=C(COc1ccc(Cl)c(F)c1)NC12CC(NC(=O)c3cnccn3)(C1)C2` [Compound 175, N-{3-[2-(4-chloro-3-fluorophenoxy)acetamido]bicyclo[1.1.1]pentan-1-yl}pyrazine-2-carboxamide], for which the EC50 lay in the range of 250 to 1000 nM.

As to `O=C(COc1ccc(Cl)c(Cl)c1)NC12CC(NC(=O)c3ccc(OC(F)(F)F)cn3)(C1)C2` [Compound 144, N-{3-[2-(3,4-dichlorophenoxy)acetamido]bicyclo[1.1.1]pentan-1-yl}-5-(trifluoromethoxy)pyridine-2-carboxamide], the EC50 is less than 50 nM. In the case of `Cc1cc2c(NC34CC(NC(=O)COc5ccc(Cl)c(Cl)c5)(C3)C4)nccn2n1` [Compound 494, 2-(3,4-dichlorophenoxy)-N-{3-[(2-methylpyrazolo[1,5-a]pyrazin-4-yl)amino]bicyclo[1.1.1]pentan-1-yl}acetamide], the EC50 was less than 50 nM. As to `O=C(COc1ccc(Cl)c(F)c1)NC12CC(NC(=O)c3ccccc3Cn3cccn3)(C1)C2` [Compound 890, N-{3-[2-(4-chloro-3-fluorophenoxy)acetamido]bicyclo[1.1.1]pentan-1-yl}-2-[(1H-pyrazol-1-yl)methyl]benzamide], the EC50 was more than 2000 nM.

`O=C(COc1ccc(Cl)c(F)c1)NC12CC(NC(=O)c3ccno3)(C1)C2` [Compound 311, N-{3-[2-(4-chloro-3-fluorophenoxy)acetamido]bicyclo[1.1.1]pentan-1-yl}-1,2-oxazole-5-carboxamide]: the EC50 was 1000 to 2000 nM. As to `Cc1cnc(C(=O)NC23CCC(NC(=O)COc4ccc5c(c4)OC(F)(F)O5)(CC2)[C@@H](O)C3)cn1` [Compound 638, N-[(3S)-4-{2-[(2,2-difluoro-2H-1,3-benzodioxol-5-yl)oxy]acetamido}-3-hydroxybicyclo[2.2.2]octan-1-yl]-5-methylpyrazine-2-carboxamide], the EC50 lay within 250 to 1000 nM. On to `Cc1nnsc1C(=O)NC12CC(NC(=O)COc3ccc(Cl)c(F)c3)(C1)C2` [Compound 845, N-{3-[2-(4-chloro-3-fluorophenoxy)acetamido]bicyclo[1.1.1]pentan-1-yl}-4-methyl-1,2,3-thiadiazole-5-carboxamide], for which the EC50 was more than 2000 nM. The value for `Cc1nc(C(=O)NC23CCC(NC(=O)COc4ccc(Cl)c(F)c4)(CC2)C(O)C3)nn1C` (stereo not drawn) [Compound 657, N-{4-[2-(4-chloro-3-fluorophenoxy)acetamido]-3-hydroxybicyclo[2.2.2]octan-1-yl}-1,5-dimethyl-1H-1,2,4-triazole-3-carboxamide] was more than 2000 nM; that for `Cc1cc(C(=O)NC23CCC(NC(=O)COc4ccc(Cl)c(F)c4)(CC2)[C@@H](O)C3)n(C)n1` (single isomer, unassigned) [Compound 485] was less than 50 nM; that for `O=C(COc1ccc(Cl)c(F)c1)NC12CC(NC(=O)c3ccc(F)cc3F)(C1)C2` [Compound 511, N-{3-[2-(4-chloro-3-fluorophenoxy)acetamido]bicyclo[1.1.1]pentan-1-yl}-2,4-difluorobenzamide] was 250 to 1000 nM. The value for `CC(C)c1cc(C(=O)NC23CC(NC(=O)COc4ccc(Cl)c(F)c4)(C2)C3)on1` [Compound 350, N-{3-[2-(4-chloro-3-fluorophenoxy)acetamido]bicyclo[1.1.1]pentan-1-yl}-3-(propan-2-yl)-1,2-oxazole-5-carboxamide] was 250 to 1000 nM; that for `O=C(COc1ccc(Cl)c(F)c1)NC12CC(Nc3cccc4cnccc34)(C1)C2` [Compound 490, 2-(4-chloro-3-fluorophenoxy)-N-{3-[(isoquinolin-5-yl)amino]bicyclo[1.1.1]pentan-1-yl}acetamide] was 50 to 250 nM.

The record behind these values is patent US10913727B2, “Modulators of the integrated stress pathway” (Calico Life Sciences LLC, priority 2016, dated 2021).
